Reference: patent US20030225273A1, “Thiopyrimidine and isothiazolopyrimidine kinase inhibitors” (priority 2002, published 2003)

Structure (SMILES)	melting point [°C]
Nc1ncnc2sc(Cc3ccncc3)c(-c3ccc(NC(=O)Nc4cccc(C(F)(F)F)c4)cc3)c12 [Example 142, N-{4-[4-amino-6-(pyridin-4-ylmethyl)thieno[2,3-d]pyrimidin-5-yl]phenyl}-N′-[3-(trifluoromethyl)phenyl]urea]	162 to 166
COCCc1sc2ncnc(N)c2c1-c1ccc(NC(=O)Cc2cccc(C)c2)cc1 [Example 112, N-{4-[4-amino-6-(2-methoxyethyl)thieno[2,3-d]pyrimidin-5-yl]phenyl}-2-(3-methylphenyl)acetamide]	200 to 202
NC(=O)N(c1ccc(-c2c(CCO)sc3ncnc(N)c23)cc1)c1cccc(C(F)(F)F)c1 [Example 139, N-{4-[4-amino-6-(2-hydroxyethyl)thieno[2,3-d]pyrimidin-5-yl]phenyl}-N-[3-(trifluoromethyl)phenyl]urea]	155 to 158
COCCc1sc2ncnc(N)c2c1-c1ccc(N(C(N)=O)c2ccccc2C)cc1 [Example 137, N-{4-[4-amino-6-(2-methoxyethyl)thieno[2,3-d]pyrimidin-5-yl]phenyl}-N-(2-methylphenyl)urea]	217 to 219
Cc1ccccc1NC(=O)Nc1ccc(-c2c(CCO)sc3ncnc(N)c23)cc1 [Example 107, N-{4-[4-amino-6-(2-hydroxyethyl)thieno[2,3-d]pyrimidin-5-yl]phenyl}-N′-(2-methylphenyl)urea]	159 to 162
COCCc1sc2ncnc(N)c2c1-c1ccc(NC(=O)c2ccccc2)cc1 [Example 113, N-{4-[4-amino-6-(2-methoxyethyl)thieno[2,3-d]pyrimidin-5-yl]phenyl}benzamide]	200 to 202
Nc1ncnc2sc(Cc3ccccc3)c(-c3ccc(NS(=O)(=O)c4ccccc4)cc3)c12 [Example 13, N-[4-(4-amino-6-benzylthieno[2,3-d]pyrimidin-5-yl)phenyl]benzenesulfonamide]	100 to 105
COCCc1sc2ncnc(N)c2c1-c1ccc(NC(=O)Nc2ccc(C)cc2)cc1 [Example 110, N-{4-[4-amino-6-(2-methoxyethyl)thieno[2,3-d]pyrimidin-5-yl]phenyl}-N′-(4-methylphenyl)urea]	128 to 132
Nc1ncnc2sc(Cc3cccnc3)c(-c3ccc(NC(=O)Nc4cccc(Cl)c4)cc3)c12 [Example 117, N-{4-[4-amino-6-(pyridin-3-ylmethyl)thieno[2,3-d]pyrimidin-5-yl]phenyl}-N′-(3-chlorophenyl)urea]	169 to 172
CC(C)c1sc2ncnc(N)c2c1-c1ccc(NC(=O)c2ccccc2)cc1 [Example 8, N-[4-(4-amino-6-isopropylthieno[2,3-d]pyrimidin-5-yl)phenyl]benzamide]	> 250
Cc1ccc(NC(=O)Nc2ccc(-c3c(Cc4ccccc4)sc4ncnc(N)c34)cc2)cc1 [Example 9, N-[4-(4-amino-6-benzylthieno[2,3-d]pyrimidin-5-yl)phenyl]-N′-(4-methylphenyl)urea]	169 to 173
COCCc1sc2ncnc(N)c2c1-c1ccc(NC(=O)Nc2cc(C(F)(F)F)ccc2F)cc1 [Example 140, N-{4-[4-amino-6-(2-methoxyethyl)thieno[2,3-d]pyrimidin-5-yl]phenyl}-N′-[2-fluoro-5-(trifluoromethyl)phenyl]urea]	209 to 211
Cc1cccc(CC(=O)Nc2ccc(-c3c(CCO)sc4ncnc(N)c34)cc2)c1 [Example 350, N-{4-[4-amino-6-(2-hydroxyethyl)thieno[2,3-d]pyrimidin-5-yl]phenyl}-2-(3-methylphenyl)acetamide]	142 to 144
COCCc1sc2ncnc(N)c2c1-c1ccc(NS(=O)(=O)c2ccccc2)cc1 [Example 111, N-{4-[4-amino-6-(2-methoxyethyl)thieno[2,3-d]pyrimidin-5-yl]phenyl}benzenesulfonamide]	206 to 208
